We go through five compounds from patent publication US20260273252A1, “GROOVED MICRONEEDLES FOR PASSIVE AND ACTIVE DRUG DELIVERY” (Trustees of Tufts College, priority 2023, published 2026).

Series [1] has as its system PTSD symptoms in patients. The note with it: cited from earlier work.
The subject of series [2] is mice with a spinal nerve injury. Particulars: 24 hours following a single injection; cited from earlier work.
For series [3], the system named is thermal nociception in rodents. The experiment in a line: Hot plate test, noxious thermal stimulus of 50 degrees Celsius (pilot studies). The note with it: for antinociceptive effects on thermal nociception (latency to lick a hind paw): 10 mg/kg i.p. for three consecutive days, hot plate 50 degrees Celsius, males, 24, 48 and 72 hours post treatment; for block of the antinociceptive effects of (2R,6R)-HNK by antagonist pretreatment: hot plate, given with (2R,6R)-HNK. Type of series: in vivo. The protocol: In addition, pilot studies were conducted to assess the antinociceptive potential of (2R,6R)-HNK (10 mg/kg intraperitoneal (i.p.) injection administered for three consecutive days) in response to a noxious thermal stimulus of 50 degrees Celsius on the hot plate apparatus. The latency to lick a hind paw was measured in males before and after (2R,6R)-HNK treatment at 24, 48, and 72 hours post treatment.
For orientation: In hot-plate and tail-flick tests a longer latency is read as antinociception.

The subject of series [4] is gait function. The experiment in a line: Forced swim test, gait function. The note with it: compared with ketamine. Type of series: in vivo.
The test system of series [5] is rodent model for CRPS and postoperative pain. Particulars: cited from earlier work.
Setting [6] is: 6 times over a 2-week period, 0.5 mg/kg 40-min infusions, treatment resistant subjects.

Regarding `CNC1(c2ccccc2Cl)CCCCC1=O` (racemic) [ketamine], in series [1] (setting [6]), the “median time to relapse after the cessation of treatment” value was 41 days and the “start of persistent remission following the first infusion” value is at least 24 h. Besides, the “persistence of resolution of PTSD symptoms before re-emergence” value in series [1] (single dose, adults and children) is “over one”. In addition, in series [1] (six 1-hour infusions, mean final dose 163.83 mg, reduced from 18.5), the “patient health questionnaire score after treatment” value is 9.5. Also, the “PTSD checklist for DSM-5 after treatment” value in series [1] (six 1-hour infusions, mean final dose 163.83 mg, reduced from 56.2) is on record as 31.3.
For `N[C@@]1(c2ccccc2Cl)CCC[C@@H](O)C1=O` [(2R,6R)-HNK, 2R,6R-hydroxynorketamine], the “antinociceptive effects after a single injection” value in series [2] is reported as “Antinociceptive effects”. For the same compound, the “antinociceptive effects on thermal nociception (latency to lick a hind paw)” value in series [3] was “long-lasting antinociceptive effects”. In addition, the “impairment of gait function” value in series [4] is recorded as “does not impair gait function significantly”. For the same compound, the “persistence of analgesic effects following administration” value in series [5] is reported as “up to five”.
Regarding `N[C@]1(c2ccccc2Cl)CCC[C@H](O)C1=O` [(2S,6S)-HNK], in series [3], the “antinociceptive effects on thermal nociception (latency to lick a hind paw)” value is listed as “not extended”.
Regarding `NS(=O)(=O)c1cccc2c1c([N+](=O)[O-])cc1nc(O)c(O)nc12` [NBQX], the “block of the antinociceptive effects of (2R,6R)-HNK by antagonist pretreatment” value in series [3] is “effectively block”.
Same read-out and setting: the value for `O=C1CC[C@@]2(O)[C@H]3Cc4ccc(O)c5c4[C@@]2(CCN3CC2CC2)[C@H]1O5` [naltrexone] was “failed to block”.
